The target of the test is Poly [ADP-ribose] polymerase 2 (Homo sapiens, UniProt Q9UGN5). The test is described as follows: Inhibition of N-terminal 6His-tagged full-length recombinant human PARP2 by fluorescence anisotropy assay.

Some results are limits rather than exact numbers.

Chain of Poly [ADP-ribose] polymerase 2 (Q9UGN5 whole entry): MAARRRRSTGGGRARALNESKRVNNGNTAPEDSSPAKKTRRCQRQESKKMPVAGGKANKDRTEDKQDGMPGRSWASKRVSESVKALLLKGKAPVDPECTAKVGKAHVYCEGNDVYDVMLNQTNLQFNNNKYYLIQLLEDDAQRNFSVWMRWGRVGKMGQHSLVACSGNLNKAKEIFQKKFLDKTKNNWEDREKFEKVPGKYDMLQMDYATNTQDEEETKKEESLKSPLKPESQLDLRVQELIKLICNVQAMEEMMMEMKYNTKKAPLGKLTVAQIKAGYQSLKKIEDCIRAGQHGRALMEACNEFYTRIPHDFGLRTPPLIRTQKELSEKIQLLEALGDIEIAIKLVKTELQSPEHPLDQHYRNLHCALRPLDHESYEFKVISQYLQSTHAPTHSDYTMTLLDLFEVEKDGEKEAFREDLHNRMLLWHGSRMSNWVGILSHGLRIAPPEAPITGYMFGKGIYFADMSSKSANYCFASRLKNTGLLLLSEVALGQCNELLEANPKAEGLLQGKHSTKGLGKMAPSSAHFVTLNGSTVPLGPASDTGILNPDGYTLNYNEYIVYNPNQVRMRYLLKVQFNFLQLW

The term IC50 denotes the concentration needed to halve the response being measured. In the case of `CNC(=O)c1ccc(N2CCN(Cc3ccc4nc(C)c(=O)[nH]c4c3F)CC2)c(C)n1` [5-[4-[(5-fluoro-2-methyl-3-oxo-4H-quinoxalin-6-yl)methyl]piperazin-1-yl]-N,6-dimethyl-pyridine-2-carboxamide], the IC50 is greater than 100 µM.

The record behind these values is BindingDB's records for PubMed 39655996 (AstraZeneca).
